The text below walks through data of patent US7803808B2, “Production of polyketides and other natural products” (Wyeth LLC, priority 2004, dated 2010).

Usually IC50 stands for the concentration that gives 50% inhibition.

The test system of one assay is cell proliferation. Particulars: compared to rapamycin; Khaw et al., 1998; cited from earlier work.
The subject of assay [1] is mixed lymphocyte reaction. To be noted: Nishida et al., 1995; cited from earlier work.
For assay [2], the system named is SF268 (SF-268, CNS) tumour cell line. The assay is described as follows: Monolayer proliferation assay (modified propidium iodide), SF268. The class given is cell-based, human. Particulars: 4 days incubation, mean of duplicate experiments. Here is the method:
(§1) In vitro evaluation of compounds for anticancer activity in a panel of 12 human tumour cell lines in a monolayer proliferation assay were carried out at the Oncotest Testing Facility, Institute for Experimental Oncology, Oncotest GmbH, Freiburg.
(§2) The Oncotest cell lines were established from human tumor xenografts as described by Roth et al. 1999. The origin of the donor xenografts was described by Fiebig et al. 1992. Other cell lines were either obtained from the NCI (H460, SF-268, OVCAR-3, DU145, MDA-MB-231, MDA-MB-468) or purchased from DSMZ, Braunschweig, Germany (LNCAP).
(§3) All cell lines, unless otherwise specified, are grown at 37° C. in a humidified atmosphere (95% air, 5% CO2) in a ‘ready-mix’ medium containing RPMI 1640 medium, 10% fetal calf serum, and 0.1 mg/mL gentamicin (PAA, Cölbe, Germany).
(§4) A modified propidium iodide assay was used to assess the effects of the test compound(s) on the growth of twelve human tumor cell lines (Dengler et al., 1995).
(§5) Briefly, cells were harvested from exponential phase cultures by trypsinization, counted and plated in 96 well flat-bottomed microtitre plates at a cell density dependent on the cell line (5-10.000 viable cells/well). After 24 h recovery to allow the cells to resume exponential growth, 0.01 mL of culture medium (6 control wells per plate) or culture medium containing 39-desmethoxyrapamycin were added to the wells. Each concentration was plated in triplicate. 39-Desmethoxyrapamycin was applied in two concentrations (0.001 mM and 0.01 mM). Following 4 days of continuous incubation, cell culture medium with or without 39-desmethoxyrapamycin was replaced by 0.2 mL of an aqueous propidium iodide (PI) solution (7 mg/L). To measure the proportion of living cells, cells were permeabilized by freezing the plates. After thawing the plates, fluorescence was measured using the Cytofluor 4000 microplate reader (excitation 530 nm, emission 620 nm), giving a direct relationship to the total number of viable cells.
(§6) Growth inhibition was expressed as treated/control×100 (% T/C) and are provided for a selection of cell lines. […]

In assay [3] the test system is 251L (GXF 251L, gastric) tumour cell line. The assay is described as follows: Monolayer proliferation assay (modified propidium iodide), 251L. To be noted: 4 days incubation, mean of duplicate experiments. Type of assay: cell-based, human. Here is the method: as §1, §2, §3, §4
as §5, with “39-Desmethoxyrapamycin was applied in two concentrations (0.001 mM and 0.01 mM).” left out
as §6

For assay [4], the system named is H460 (NCl-H460, lung) tumour cell line. The assay is described as follows: Monolayer proliferation assay (modified propidium iodide), H460. Type of assay: cell-based, human. Particulars: 4 days incubation, mean of duplicate experiments. Here is the method:
as §1, §2, §3, §4, §5
Growth inhibition was expressed as treated/control×100 (% T/C) and are provided for a selection of cell lines. For active compounds, the average IC50 & IC70 values across the entire cell line panel examined were estimated by plotting compound concentration versus cell viability and are also provided.
In vitro evaluation of 17-desmethyl-39-desmethoxyrapamycin for anticancer activity in a panel of 12 human tumour cell lines in a monolayer proliferation assay was carried out as described above using a modified propidium iodide assay.

Assay [5] relates to MCF7 (MCF-7, breast) tumour cell line. Briefly: Monolayer proliferation assay (modified propidium iodide), MCF7. The class given is cell-based, human. To be noted: 4 days incubation, mean of duplicate experiments. Here is the method: as §1, §2, §3, §4, §5, §6
Assay [6] relates to 394NL (MEXF 394NL, melanoma) tumour cell line. Briefly: Monolayer proliferation assay (modified propidium iodide), 394NL. The class given is cell-based, human. Particulars: 4 days incubation, mean of duplicate experiments. Here is the method: as §1, §2, §3, §4
as §5, with “39-Desmethoxyrapamycin was applied in two concentrations (0.001 mM and 0.01 mM).” left out
as §6

Assay [7] deals with OVCAR3 (OVCAR-3, ovarian) tumour cell line. The assay is described as follows: Monolayer proliferation assay (modified propidium iodide), OVCAR3. Type of assay: cell-based, human. To be noted: 4 days incubation, mean of duplicate experiments. Here is the method: as §1, §2, §3, §4, §5, §6
Assay [8] has as its system DU145 (prostate, PTEN positive) tumour cell line. The assay is described as follows: Monolayer proliferation assay (modified propidium iodide), DU145. Type of assay: cell-based, human. To be noted: 4 days incubation, mean of duplicate experiments. Here is the method:
as §1, §2, §3, §4, §5, §6

The subject of assay [9] is LNCAP (prostate, PTEN negative) tumour cell line. The assay is described as follows: Monolayer proliferation assay (modified propidium iodide), LNCAP. Particulars: 4 days incubation, mean of duplicate experiments. The class given is cell-based, human. Here is the method: as §1, §2, §3, §4
as §5, with “39-Desmethoxyrapamycin was applied in two concentrations (0.001 mM and 0.01 mM).” left out
as §6

The subject of assay [10] is 1138L (UXF 1138L, uterus) tumour cell line. Briefly: Monolayer proliferation assay (modified propidium iodide), 1138L. To be noted: 4 days incubation, mean of duplicate experiments. Type of assay: cell-based, human. Here is the method: as §1, §2, §3, §4, §5, §6
Assay [11] concerns panel of human tumour cell lines. Briefly: Monolayer proliferation assay, mean across the cell line panel. Particulars: average across the cell lines tested; estimated from concentration versus cell viability. The class given is cell-based. Here is the method: as §1, §2, §3, §4, §5, §6
A further assay has as its system fungi. Particulars: compared to rapamycin, cited from earlier work; for antifungal activities: Wong et al., 1998.
Another assay addresses FKBP12 PPlase (Homo sapiens, UniProt P62942). To be noted: compared to rapamycin; Box et al., 1995; cited from earlier work.
A further assay deals with murine splenic T cells. To be noted: compared to rapamycin; Box et al., 1995; cited from earlier work.
The subject of the next assay is murine splenic B cells. Particulars: compared to rapamycin; Box et al., 1995; cited from earlier work.

FKBP12 PPlase, sequence (P62942 whole entry): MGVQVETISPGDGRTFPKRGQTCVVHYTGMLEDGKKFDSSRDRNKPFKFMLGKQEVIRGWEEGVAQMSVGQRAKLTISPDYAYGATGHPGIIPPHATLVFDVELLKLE

Take `CO[C@H]1C[C@@H]2CC[C@@H](C)[C@@](O)(O2)C(=O)C(=O)N2CC(O)C[C@H]2C(=O)O[C@H]([C@H](C)C[C@@H]2CC[C@@H](O)[C@H](OC)C2)CC(=O)[C@H](C)/C=C(\C)[C@@H](O)CC(=O)[C@H](C)C[C@H](C)/C=C/C=C/C=C/1C` (stereo partly shown) [4-hydroxyprolyl-26-desmethoxy-rapamycin]: the “inhibitory activity in proliferation assays” value with cell proliferation is on record as “significantly less than that of rapamycin”.
Take `CO[C@H]1C[C@@H]2CC[C@@H](C)[C@](O)(CC(=O)N3CCCC[C@H]3C(=O)O[C@H]([C@H](C)C[C@@H]3CC[C@@H](O)[C@H](OC)C3)CC(=O)[C@H](C)/C=C(\C)[C@@H](O)[C@@H](OC)C(=O)[C@H](C)C[C@H](C)/C=C/C=C/C=C/1C)O2` [9-deoxorapamycin]: the “mixed lymphocyte reaction (MLR) inhibitory activity” value in assay [1] is “more significant decrease in activity”.
`CO[C@@H]1/C=C/C=C/C=C/[C@@H](C)C[C@@H](C)C(=O)[C@H](OC)[C@H](O)/C(C)=C/[C@@H](C)C(=O)C[C@@H]([C@H](C)C[C@H]2CC[C@H](O)CC2)OC(=O)[C@@H]2CCCCN2C(=O)C(=O)[C@]2(O)O[C@@H](CC[C@H]2C)C1` [17-desmethyl-39-desmethoxyrapamycin]: the “Test/Control (%) at drug concentration” value in assay [2] (1 μM) is given as 57%; in assay [2] (10 μM) it was 37%; in [2] (100 μM) it was 4%; in [3] (1 μM) it was 85%; in assay [3] (10 μM) it was 89%; in [3] (100 μM) it was 16%. Moreover, the “Test/Control (%) at drug concentration” value in assay [4] (1 μM) is 82%; in assay [4] (10 μM), 76%; in assay [4] (100 μM) it was 3%; in [5] (1 μM), 59%; in assay [5] (10 μM), 52%; in assay [5] (100 μM), 8%. Further, the “Test/Control (%) at drug concentration” value in assay [6] (1 μM) came to 66%; in assay [6] (10 μM) it was 61%; in assay [6] (100 μM), 4%; in assay [7] (1 μM), 84%; in assay [7] (10 μM), 61%; in assay [7] (100 μM), 8%. Further, the “Test/Control (%) at drug concentration” value in assay [8] (1 μM) stood at 69%; in assay [8] (10 μM), 66%; in assay [8] (100 μM), 5%; in assay [9] (1 μM), 59%; in assay [9] (10 μM), 43%; in assay [9] (100 μM), 15%. Further, the entries for the “Test/Control (%) at drug concentration” value in assay [10] (1 μM), in assay [10] (10 μM) and in [10] (100 μM) were 59%, 46% and 5%, respectively. For the same molecule, in assay [11], the IC50 is 13.3 µM. Also, the “Mean IC70” value in assay [11] is 38.2 µM.
Regarding `CO[C@H]1C[C@@H]2CC[C@@H](C)[C@@](O)(O2)C(=O)C(=O)N2CCCC[C@H]2C(=O)O[C@H]([C@H](C)C[C@@H]2CC[C@@H](O)[C@H](OC)C2)CC(=O)[C@H](C)/C=C(\C)[C@@H](O)[C@@H](O)C(=O)[C@H](C)C[C@H](C)/C=C/C=C/C=C/1C` [27-O-desmethylrapamycin], the antifungal activity result with fungi (Box et al., 1995) is on record as “lower than that of rapamycin”. Besides, in the assay with fungi, the antifungal activities entry was “lower than that of rapamycin”. For the same molecule, the “inhibition of FKBP12 PPlase activity” value on FKBP12 PPlase is “seemed to be increased”. Also, in the assay on murine splenic T cells, the “inhibition of ConA-stimulated proliferation of murine splenic T cells” value is “decreased when compared to rapamycin”. In addition, in the assay with murine splenic B cells, the “inhibition of LPS-stimulated proliferation of murine splenic B cells” value was “decreased when compared to rapamycin”.
With `CO[C@H]1C[C@@H]2CC[C@@H](C)[C@@](O)(O2)C(=O)C(=O)N2CCCC[C@H]2C(=O)O[C@H]([C@H](C)C[C@@H]2CC[C@@H](O)[C@H](OC)C2)CC(=O)[C@H](C)/C=C(\C)[C@@H](O)CC(=O)[C@H](C)C[C@H](C)/C=C/C=C/C=C/1C` [27-desmethoxyrapamycin], in the assay with fungi, the antifungal activities entry was “lower than that of rapamycin”.
In the case of `CO[C@H]1C[C@@H]2CC[C@@H](C)[C@@](O)(O2)C(=O)C(=O)N2CCCC[C@H]2C(=O)O[C@H]([C@H](C)C[C@@H]2CC[C@@H](O)[C@H](OC)C2)CC(=O)[C@H](C)/C=C(\C)[C@@H](O)[C@@H](OC)C(=O)[C@H](C)C[C@H](C)/C=C/C=C/C=C/1C` [Rapamycin, reference compound], the “Test/Control (%) at drug concentration” value in assay [4] (10 μM) worked out at 66%. Moreover, in assay [11], the “Mean IC70” value is 9.1 µM.
Take `COC1CC2CCC(C)C(O)(O2)C(=O)C(=O)N2CCCC2C(=O)OC(C(C)CC2CCC(O)C(OC)C2)CC(=O)C(C)/C=C(\C)C(O)C(OC)C(=O)C(C)CC(C)/C=C/C=C/C=C/1C` (stereo not shown) [prolylrapamycin]: the antifungal activities result in the assay on fungi was “lower than that of rapamycin”.
